Test [1] has as its target recombinant SARS-CoV-2 Main protease (Mpro) (Severe acute respiratory syndrome coronavirus 2 (2019-nCoV) (SARS-CoV-2), UniProt P0DTD1). The test is described as follows: Cov Mpro Biochemical IC50 Assay. The note with it: fluorogenic peptide substrate 40 μM.
For test [2], the system named is SARS-CoV-2-NLuc. The test is described as follows: microbe, parasite or virus in culture. It is filed as cell-based, SARS Coronavirus 2.
[3] abbreviates: Severe acute respiratory syndrome coronavirus, 48 h; read-out: MPro EC50.
The mark [4] stands for this setting: recombinant SARS-CoV-2 Mpro 7.5 nM, read-out: MPro IC50.
Setting [5] is: Severe acute respiratory syndrome coronavirus, 48 h, read-out: MPro EC50.

Each structure is given as a SMILES string. pEC50, pIC50: −log10 of the molar value. Read-outs that look alike come from different tables or passages of the source.

The pIC50 is the negative decadic logarithm of the IC50, by convention in mol/L. As usually defined, the pEC50 is −log10 of the EC50, conventionally taken in molar units. `COc1cc(-c2cc3[nH]c(=O)n(-c4cncc5ccccc45)c(=O)c3cc2F)c(Cl)cc1F` [Example 650, 7-(2-chloro-4-fluoro-5-methoxy-phenyl)-6-fluoro-3-(4-isoquinolyl)-1H-quinazoline-2,4-dione]: the pIC50 in test [1] (MPro IC50, recombinant SARS-CoV-2 Mpro 7.5 nM) is 7.50. Further, in test [2] (setting [3]), the pEC50 is 7.47.
On to `COc1cc(F)cc(Cl)c1-c1ccc2c(=O)n(-c3cncc4ccccc34)c(=O)[nH]c2c1` [Example 651], for which the pIC50 in test [1] (setting [4]) is 6.47. Also, the pEC50 in test [2] (setting [5]) is 6.87.
For `COc1cc(-c2cc3[nH]c(=O)n(-c4cncc5nc(C)sc45)c(=O)c3s2)c(Cl)cc1F` [Example 652] the same measures were 7.65 and 7.32.
On to `COc1cc(-c2cc3c(s2)c(=O)n(-c2cncc4ccsc24)c(=O)n3CC#N)c(Cl)cc1F` [Example 653], for which, in test [1] (setting [4]), the pIC50 is 8.59. Moreover, the pEC50 in test [2] (setting [5]) is 8.35.
For `COc1cc(-c2cc3c(s2)c(=O)n(-c2cncc4ccsc24)c(=O)n3CCC#N)c(Cl)cc1F` [Example 654] the same measures were 8.41 and 8.62.
Regarding `COc1cc(-c2cc3c(s2)c(=O)n(-c2cncc4ccsc24)c(=O)n3CC2(C#N)CC2)c(Cl)cc1F` [Example 655], in test [1] (setting [4]), the pIC50 was 8.47. The pEC50 in test [2] (setting [5]) is 8.48.
For `Cn1ncc2cncc(-n3c(=O)[nH]c4cc(-c5c(Cl)cc(Cl)c6c5CCO6)sc4c3=O)c21` [Example 656], the pIC50 in test [1] (setting [4]) was 7.92. In addition, the pEC50 in test [2] (setting [3]) was 7.62.
Regarding `COc1cc(-c2cc3[nH]c(=O)n(-c4cncc5cnn(C)c45)c(=O)c3s2)c(C)cc1F` [Example 657], the pIC50 in test [1] (setting [4]) is 7.84. Moreover, the pEC50 in test [2] (setting [5]) is 7.56.
As to `COc1cc(-c2cc3c(s2)c(=O)n(-c2cncc4cnn(C)c24)c(=O)n3CCCC#N)c(Cl)cc1F` [Example 658], the pIC50 in test [1] (setting [4]) was 7.84. In addition, in test [2] (setting [5]), the pEC50 is 7.64.
For `COc1cc(-c2cc3c(s2)c(=O)n(-c2cncc4ccccc24)c(=O)n3CCCC#N)c(Cl)cc1F` [Example 660], the pIC50 in test [1] (setting [4]) is 7.75. For the same compound, the pEC50 in test [2] (setting [5]) was 7.78.
Regarding `COc1cc(-c2cc3c(s2)c(=O)n(-c2cncc4ccccc24)c(=O)n3CC2(CC#N)CC2)c(Cl)cc1F` [Example 661], in test [1] (setting [4]), the pIC50 is 7.53. In addition, in test [2] (setting [5]), the pEC50 is 7.43.
Regarding `Cn1ncc2cncc(-n3c(=O)[nH]c4cc(-c5ccc(F)cc5Cl)sc4c3=O)c21` [Example 662], the pIC50 in test [1] (setting [4]) is 7.39. Also, the pEC50 in test [2] (setting [5]) was 7.09.
For `Cn1ncc2cncc(-n3c(=O)[nH]c4cc(-c5cc(F)ccc5Cl)sc4c3=O)c21` [Example 663] the same measures were 7.84 and 7.78.
For `Cn1ncc2cncc(-n3c(=O)c4sc(-c5cc(F)ccc5Cl)cc4n(CC#N)c3=O)c21` [Example 664] the same measures were 8.28 and 7.94.
Turning to `COc1cc(-c2cc3c(s2)c(=O)n(-c2cncc4cnn(C)c24)c(=O)n3CCC#N)c(C)cc1F` [Example 665], in test [1] (setting [4]), the pIC50 is 8.14. Besides, the pEC50 in test [2] (setting [5]) is 7.98.
For `COc1cc(-c2cc3[nH]c(=O)n(-c4cncc5cnn(C)c45)c(=O)c3s2)c(C)cc1Cl` [Example 666], the pIC50 in test [1] (setting [4]) was 7.62. In addition, in test [2] (setting [3]), the pEC50 is 7.26.
With `COc1cc(-c2cc3[nH]c(=O)n(-c4cncc5cnn(C)c45)c(=O)c3s2)c(Cl)cc1Cl` [Example 667], the pIC50 in test [1] (setting [4]) was 7.85. Further, the pEC50 in test [2] (setting [5]) is 7.73.
For `COc1cnc(Cl)c(-c2cc3[nH]c(=O)n(-c4cncc5cnn(C)c45)c(=O)c3s2)c1` [Example 668] the same measures were 7.64 and 6.91.
As to `Cc1cnc(Cl)c(-c2cc3[nH]c(=O)n(-c4cncc5cnn(C)c45)c(=O)c3s2)c1` [Example 669], in test [1] (setting [4]), the pIC50 was 6.47. In addition, the pEC50 in test [2] (setting [5]) was < 6.00.
Regarding `Cn1ncc2c(-c3cc4[nH]c(=O)n(-c5cncc6cnn(C)c56)c(=O)c4s3)c(Cl)ccc21` [Example 670], the pIC50 in test [1] (setting [4]) was 6.84. Also, the pEC50 in test [2] (setting [5]) is 6.23.
For `COc1cc(-c2cc3[nH]c(=O)n(-c4cncc5sc(C(C)(C)O)c(C)c45)c(=O)c3s2)c(Cl)cc1F` [Example 671] the same measures were 8.23 and 8.13.
For `COc1cc(-c2cc3[nH]c(=O)n(-c4cncc5ccccc45)c(=O)c3cc2OC)c(Cl)cc1F` [Example 672, 7-(2-chloro-4-fluoro-5-methoxyphenyl)-3-(isoquinolin-4-yl)-6-methoxyquinazoline-2,4(1H,3H)-dione] the same measures were 7.42 and 7.62.
Consider `N#Cc1cncc(-c2cccc(Cl)c2-c2cc3[nH]c(=O)n(-c4cncc5ccccc45)c(=O)c3s2)c1` [Example 673], for which the pIC50 in test [1] (setting [4]) was 8.39. Further, the negative-log EC50 (pEC50) in test [2] (setting [5]) is 8.43.
For `Cc1csc2cncc(-n3c(=O)[nH]c4cc(-c5c(Cl)cccc5-c5cncc(C#N)c5)sc4c3=O)c12` [Example 674] the same measures were 8.41 and 8.55.
For `CCOc1cc(-c2cc(OC)c(F)cc2Cl)cc2[nH]c(=O)n(-c3cncc4ccccc34)c(=O)c12` [Example 676] the same measures were 7.50 and 7.60.
As for `Cn1ncc2cncc(-n3c(=O)[nH]c4cc(-c5c(Cl)cccc5-c5cncc(C#N)c5)sc4c3=O)c21` [Example 677], the pIC50 in test [1] (setting [4]) was 8.14. Besides, in test [2] (setting [3]), the pEC50 is 7.35.
As to `COc1cc(-c2cc(OC)c3c(=O)n(-c4cncc5ccccc45)c(=O)[nH]c3c2)c(C#N)cc1F` [Example 679], in test [1] (setting [4]), the pIC50 was 7.60. For the same compound, the pEC50 in test [2] (setting [5]) is 7.10.
For `COc1cc(-c2cc(OC)c3c(=O)n(-c4cncc5ccccc45)c(=O)[nH]c3c2)c(C#N)cc1F` [Example 680], the pIC50 in test [1] (setting [4]) was 7.66. Also, the pEC50 in test [2] (read-out: MPro EC50) was 7.68.
As for `N#CCn1c(=O)n(-c2cncc3ccccc23)c(=O)c2sc(-c3c(Cl)cccc3-c3cncc(C#N)c3)cc21` [Example 681], in test [1] (setting [4]), the pIC50 was 8.35. For the same compound, the pEC50 in test [2] (setting [5]) was 7.95.
On to `COc1cc(-c2cc3[nH]c(=O)n(-c4cncc5cccc(F)c45)c(=O)c3cc2OC)c(C#N)cc1F` [Example 682], for which the pIC50 in test [1] (setting [4]) is 7.69. Further, the pEC50 in test [2] (setting [5]) was 7.48.
For `COc1cc(-c2cc3[nH]c(=O)n(-c4cncc5ccn(C)c45)c(=O)c3cc2OC)c(C#N)cc1F` [Example 683] the same measures were 8.05 and 7.36.
Consider `COc1cc(-c2cc3[nH]c(=O)n(-c4cncc5cccnc45)c(=O)c3cc2OC)c(C#N)cc1F` [Example 684], for which the pIC50 in test [1] (setting [4]) was 7.87. In addition, the pEC50 in test [2] (setting [5]) was 6.92.
For `N#Cc1ccc(Cl)cc1-c1cc2[nH]c(=O)n(-c3cncc4ccccc34)c(=O)c2s1` [Example 685] the same measures were 7.92 and 7.16.
With `COc1cc(-c2cc3c(s2)c(=O)n(-c2cncc4[nH]c(=O)n(C)c24)c(=O)n3CCC#N)c(Cl)cc1F` [Example 687], the pIC50 in test [1] (setting [4]) is 8.31. Moreover, in test [2] (setting [5]), the pEC50 is 6.83.
Take `COc1cc(-c2cc3c(s2)c(=O)n(-c2cncc4nnn(C)c24)c(=O)n3CC2(C#N)CC2)c(Cl)cc1F` [Example 688]: the pIC50 in test [1] (setting [4]) is 8.01. Further, the pEC50 in test [2] (setting [5]) was 7.84.
For `COc1cc(-c2cc3c(s2)c(=O)n(-c2cncc4ccccc24)c(=O)n3Cc2ncn(C)n2)c(Cl)cc1F` [Example 689] the same measures were 7.50 and 7.52.
